{"source": "patent US20240325419A1", "about": "“PHARMACEUTICAL COMPOSITION FOR RESTORING PHYSIOLOGICAL PROCESSES AND CELLS OF ORGANISM” (priority 2022, published 2024)", "key": {"[1]": {"tested_on": "HT-1080 human fibrosarcoma cell line", "test": "Cytotoxicity on the cells culture HT1080", "type": "cell-based", "conditions": "TiO2 or SiO2 600 mcg/ml, cyclodextrin 5000 mcg/ml, Doxorubicin 200 mcg/ml", "experimental": "In these studies cells (5×10^4) were seeded in 6-well plates and cultured in RPMI-1640 medium containing 10% fetal bovine serum. The cultures were incubated for 2 hours in CO2 thermostate at 37° C. After the preincubation period the medium was removed, the cells were washed with physiological saline (2×1 ml 0.9% NaCl) and exposed to testing samples applying various concentrations for 60 min. After removing the test compounds fresh RPMI 1640 medium containing 10% FBS was added and the cultures were incubated for further 24 hours at 37° C. in humidified thermostate (5% CO2). At the end of the posttreatment period the medium as supernatants of the cultures, containing released cells was removed and saved for cell counting."}, "human tumour cell lines": {"tested_on": "human tumour cell lines", "test": "Cytotoxicity and cytomorphology of test substances, conclusions (cell line not given)", "conditions": "Doxorubicin 0.2 mg/ml; HPBCD 5 mg/ml"}, "Caenorhabditis elegans": {"tested_on": "Caenorhabditis elegans", "test": "Life duration of Caenorhabditis elegans on NGM plates", "type": "in vivo", "procedure": "ADAM QD/T, TiO2 aqueous nanodispersion used for researches on the animals, was sterile nanodispersion, of pharmaceutical class, in concentration 0.6 mg/ml. • 2. […] SBECD, Sulfobutylated beta-cyclodextrin sodium salt, Budapest, Hungary DEXOLVE® pharma grade (DS 6.5), powder in concentration 0.3 mg/ml. Protocol of researches and step-by-step methodology: • embryos were isolated (synchronization) • larvae of identical phase (L4) were placed on the standard NGM (nematode growth medium) […] plates in the Petri dishes. • all the animals were in the age from first up to ninth day of life and lived in a medium containing the above-listed components, after ninth day they were placed in standard […] without other additions as FUDR. • deaths of the animals were constantly registered as a time function • the curves of life duration were created on the basis of read indications. Composition of NGM plates (all the chemical compounds and reagents of analytical class); NaCl, agar, peptone, 5 mg/ml cholesterol in ethanol, non-autoclaved, 1 M K3PO4 buffer pH 6.0 (108.3 g KH2PO4, 35.6 g K2HPO4, H2O for 1 liter), 1M MgSO4, Petri dishes, peristaltic pump. The results present average of three parallel, independent definitions, research cycles of C. elegans."}}, "note": "“Also recorded” adds a separate entry of the source.", "data": [{"molecule": "COc1cccc2c1C(=O)c1c(O)c3c(c(O)c1C2=O)C[C@@](O)(C(=O)CO)C[C@@H]3O[C@H]1C[C@H](N)[C@H](O)[C@H](C)O1", "note": "[Doxorubicin]", "values": [{"measurement": "Cytotoxicity", "setting": "[1]", "value": "evident cytotoxicity; also recorded: significant cytotoxicity"}, {"measurement": "Cytotoxicity", "setting": "human tumour cell lines", "value": "moderate cytotoxicity"}]}, {"molecule": "Sulfobutylated beta-cyclodextrin sodium salt [SBECD]", "values": [{"measurement": "Number of living C. elegans (%)", "setting": "Caenorhabditis elegans; life duration 10 days", "value": 90, "unit": "%"}, {"measurement": "Number of living C. elegans (%)", "setting": "Caenorhabditis elegans; life duration 13 days", "value": 41, "unit": "%"}, {"measurement": "Number of living C. elegans (%)", "setting": "Caenorhabditis elegans; life duration 14 days", "value": 20, "unit": "%"}, {"measurement": "Number of living C. elegans (%)", "setting": "Caenorhabditis elegans; life duration 15 days", "value": 7, "unit": "%"}, {"measurement": "Number of living C. elegans (%)", "setting": "Caenorhabditis elegans; life duration 18 days", "value": 0, "unit": "%"}]}]}
